For series [1] the following is noted: governs risk of condensation in cold conditions; cited from earlier work.
The test system of series [2] is laboratory animals and volunteer testers. The series is described as follows: Effective concentration ranges of the components of the mixture. In kind it is in vivo.

Turning to `[Kr]` [krypton], the critical temperature in series [1] is reported as 209.35 K.

Regarding `[He]` [helium], the “effective content providing antihypothermic and antihypoxic effects” value in series [2] (in a mixture with oxygen from 21, argon at least 25 % by volume, xenon and krypton, mixture temperature 30 to 70° C.) was “at least 40 % by volume”.

Take `[Ar]` [argon]: in series [2] (laboratory animals, volunteer testers and foreign sources), the “range of efficiency with the greatest effect, concentration in a mixture with oxygen” value is listed as 30-70 % by volume.
